The source of these data is article PMC12020424, “Identification and Validation of Cyclic Peptides with Mucin-Selective, Location-Specific Binding in the Gastrointestinal Tract” (ACS Nano, 2025).

Bridge positions count the residues as written; N and C are the ends. Ends that are not written are not given here.

Assay [1] concerns MUC2-containing intestinal tissue (jejunal). As to the kind of experiment: Ex vivo fluorescent binding to small intestine tissue. Particulars: MUC2-selective peptides to small intestine; for Overall nanoparticle “score”: scaled between free AF647 (0) and WGA-AF647 (1), mean across trials n = 3; for Selectivity: score for MUC2 tissue / sum of scores for all mucins, n = 3. The arrangement: species or system porcine. The source says:
After identifying the peptide hits for each mucin, we tested their binding in an ex vivo setting (Figure S1), evaluating their interaction with mucin-containing porcine tissue and semiquantitatively representing it through fluorescent imaging (Figure 3a). The cyclic peptides were synthesized and conjugated to a fluorophore, Alexa Fluor 647 (AF647), at the N-terminus to allow fluorescent imaging to be used to semiquantitatively measure the peptides’ ex vivo tissue binding, compared to free AF647 and AF647 conjugated to wheat germ agglutinin (WGA), a known lectin for glycoproteins.[40] […] Porcine GI tissue was used due to its similarity in mucin expression compared to human GI tissue and its capacity to source large surface areas of tissue for experiments.[41],[42] Representative IVIS images are shown in Figure 3b-e, where the first four columns represent the four identified peptides (M2.1–M2.4 in Figure 3b,c, M5.1–M5.4 in Figure 3d,e), the fifth column represents WGA-AF647, and the sixth column represents AF647. The “score” results for the peptide ligands are presented in Figure 3f,g for the mucins of interest, with Tables S2–S5 and Figure S3 detailing results for the other tissues (the equation for calculating the “score” is found in the Materials and Methodssection). […] We also examined selectivity by incubating peptides on nontarget tissues. Figure 3h,i depicts the “selectivity” results for the MUC2-selective and MUC5AC-selective peptides, respectively. Selectivity was calculated by determining the ratio of the “score” for a particular mucin to the sum of the “scores” for all mucins (see the Materials and Methods section for the equation used).
The top-performing hits from phage display were tested on ex vivo segments of porcine mucin-containing tissues (jejunal, stomach, and esophageal tissues) obtained from local abattoirs or laboratory-maintained pigs. Tissue was used either immediately after acquisition or after storage at −80 °C; tissue was used at most 1 week after acquisition and storage at −80 °C. After acquisition and equilibration to room temperature, the tissue was washed twice with 25 mL (each) of cold 1× PBS to remove undigested food and other debris. After washing and cleaning, the tissue was mounted between two magnetic plates with holes corresponding to a 48-well plate, as previously described,[72] such that the luminal side of the tissue was facing up (Figure S1). After the tissue was mounted, the amount of peptide/protein corresponding to 40 μg of AF647 was suspended in 200 μL of 1× PBS and added to the wells created by the magnetic plates. This was done 3× for each formulation to perform the experiment in triplicate. In addition, plain 1× PBS was added to one well to serve as the background measurement. After the peptides were added, the plate setup was covered with aluminum foil and allowed to incubate for 1 h at room temperature with gentle agitation (50 rpm). After incubation, the nonbinding peptides were removed by pouring out the solutions onto a clean paper towel, and the setup was washed three times by adding 200 μL of 1× PBS to each well and gently agitating the setup for 30 s before removing the washing solution. After washing was complete, fluorescence imaging was performed using an IVIS Spectrum fluorescent imaging system (PerkinElmer), with an automatically calculated exposure time (usually ∼1 s), a 20 cm × 20 cm field of view, and an excitation/emission of 640/680 nm, respectively. The imaging results were analyzed using Living Image software to calculate the total fluorescence intensity for each well, and the results for each hit or control were averaged across different wells. The negative control used was unconjugated AF647, while the positive control was WGA-AF647, since WGA is a known lectin that binds glycoproteins.
To better account for tissue-to-tissue variability, the results for each trial were reported as scores rather than using the raw fluorescence intensity. […]

Another assay deals with MUC2 (Homo sapiens, UniProt Q02817). As to the kind of experiment: Phage ELISA on MUC2. The assay is classed as binding. The following applies: phage clones displaying the peptide, 10^7 PFU/μL, MUC2-coated plate, anti-M13/HRP, TMB, 450 nm, blank subtracted, three wells; vs random library and insertless phage. The source says: We next sought to validate the binding efficiency of these identified phage clones. We tested phage clones displaying peptides M2.1, M2.2, M2.3, and M2.4 for binding to MUC2, and phage clones displaying peptides M5.1, M5.2, M5.3, and M5.4 for binding to MUC5AC. We utilized a bacteriophage enzyme-linked immunosorbent assay to test the binding of the peptide hits to the specific target mucins, MUC2 and MUC5AC (Figure 2d). The spectrophotometer reported absorbance values at 450 nm. The intensity of the absorbance signal is proportional to the amount of peptide-mucin binding present in each sample. The negative controls (library samples and insertless samples) served as references for nonspecific binding.
First, mucin was coated onto the surface of a plastic plate overnight using the same process as that performed for the original phage display. The next morning, three wells of each phage clone were prepared, with each phage solution having a titer of 10^7 PFU/μL to ensure a fair comparison between the clones. […]
However, instead of eluting the bound phage, 100 μL of 1:2000 anti-M13/HRP mouse monoclonal antibody was added to each well, and the antibody was allowed to incubate with the wells for 30 min. […] The resulting solutions were analyzed by absorbance spectroscopy at a wavelength of 450 nm to determine the relative amount of phage present in each well.

Turning to “CAKHRIMLC (disulfide 1-9 (inferred)) [Peptide M2.1, CX7C cyclic peptide hit for MUC2; AF647 conjugated at N-terminus in ex vivo tests]”, in assay [1], the “Overall nanoparticle “score”” value is 0.550 and the Selectivity amounted to 0.298. At MUC2, the “phage ELISA absorbance vs negative controls” value was “significantly higher absorbances than the two negative controls”.

Regarding “CTDKASSSC (disulfide 1-9 (inferred)) [Peptide M2.2, CX7C cyclic peptide hit for MUC2]”, in assay [1], the “Overall nanoparticle “score”” value amounted to 0.243 and the Selectivity was 0.396. For the same sequence, the “phage ELISA absorbance vs negative controls” value on MUC2 is given as “significantly higher absorbances than the two negative controls”.
